Assay results as given in ChEMBL document CHEMBL1158551, “Click reaction synthesis of carbohydrate derivatives from ristocetin aglycon with antibacterial and antiviral activity” (Bioorg Med Chem Lett, 2010).
pEC50: −log10 of the molar value. Converted amounts (≈) assume the structure as drawn. The source made the active and inactive calls. No cut-off for these calls is given here.

Tests used:
[1] = test system: Influenza B virus; assay: Antiviral activity against influenza B virus assessed as cell viability by cell based MTS assay; format: functional, organism-based
[2] = test system: Influenza A virus; assay: Antiviral activity against influenza A virus H1N1 assessed as cell viability by cell based MTS assay; format: functional, organism-based
[3] = test system: Influenza A virus; assay: Antiviral activity against Influenza A virus H3N2 assessed as inhibition of viral induced cytopathic effect; format: functional, organism-based
[4] = Toxicity assessed as increase of ristocetin-induced platelet aggregation; format: cell-based
[5] = test system: Influenza B virus; assay: Antiviral activity against influenza B virus assessed as inhibition of viral induced cytopathic effect; format: functional, organism-based
[6] = test system: Influenza A virus; assay: Antiviral activity against influenza A virus H1N1 assessed as inhibition of viral induced cytopathic effect; format: functional, organism-based
[7] = test system: Influenza A virus; assay: Antiviral activity against Influenza A virus H3N2 assessed as cell viability by cell based MTS assay; format: functional, organism-based
[8] = test system: Staphylococcus aureus; assay: Antibacterial activity against methicillin-[…] Staphylococcus aureus ATCC 33591 by broth microdilution method; format: functional
[9] = test system: Enterococcus faecalis; assay: Antibacterial activity against vancomycin-resistant and teicoplanin-sensitive Enterococcus faecalis ATCC 5129 expressing VanB gene by broth microdilution method; format: functional
[10] = test system: Enterococcus faecalis; assay: Antibacterial activity against vancomycin and teicoplanin-resistant Enterococcus faecalis 15376 expressing VanA gene by broth microdilution method; format: functional
[11] = test system: Staphylococcus aureus; assay: Antibacterial activity against methicillin-[…] Staphylococcus aureus ATCC 29213 by broth microdilution method; format: functional
[12] = test system: Staphylococcus epidermidis; assay: Antibacterial activity against Staphylococcus epidermidis by broth microdilution method; format: functional
[13] = test system: Platelet; assay: Inhibition of ristocetin-induced platelet aggregation at 0.1 mg/ml; format: functional, cell-based
[14] = test system: Staphylococcus epidermidis; assay: Antibacterial activity against biofilm positive Staphylococcus epidermidis ATCC 35984; format: functional
[15] = test system: Enterococcus faecalis; assay: Antibacterial activity against vancomycin and teicoplanin-sensitive Enterococcus faecalis ATCC 29212 by broth microdilution method; format: functional
[16] = test system: Bacillus subtilis; assay: Antibacterial activity against Bacillus subtilis ATCC 6633 by broth microdilution method; format: functional

SMILES | pEC50 [1] | pEC50 [2] | pEC50 [3] | pEC50 [5] | pEC50 [6] | pEC50 [7] | MBC [8] | MIC [8] | MBC [9] | MIC [9] | MBC [10] | MIC [10] | MBC [11] | MIC [11] | MBC [12] | MIC [12] | inhibition [13] | MBC [14] | MIC [14] | MBC [15] | further results
COC(=O)[C@H]1NC(=O)[C@H]2NC(=O)[C@H](NC(=O)[C@@H]3NC(=O)[C@H]4NC(=O)[C@H](NC(=O)[C@H](n5cc(CO[C@@H]6O[C@@H](C)[C@H](O)[C@@H](O)[C@H]6O)nn5)c5ccc(O)c(c5)Oc5cc4cc(O)c5C)[C@H](O)c4ccc(cc4)Oc4cc3cc(c4O)Oc3ccc(cc3)[C@H]2O)c2ccc(O)c(c2)-c2c(O)cc(O)cc21 | < 4.00 | < 4.00 | < 4.00 | < 4.00 | < 4.00 | < 4.00 |  |  |  |  |  |  |  |  |  |  |  |  |  |  | Activity [4]: Toxic
COC(=O)[C@@H]1NC(=O)[C@H]2NC(=O)[C@H](NC(=O)[C@@H]3NC(=O)[C@H]4NC(=O)[C@H](NC(=O)[C@H](n5cc(CO[C@H]6O[C@H](CO)[C@@H](O)[C@H](O)[C@H]6NC(C)=O)nn5)c5ccc(O)c(c5)Oc5cc4cc(O)c5C)[C@H](O)c4ccc(cc4)Oc4cc3cc(c4O)Oc3ccc(cc3)[C@H]2O)c2ccc(O)c(c2)-c2c(O)cc(O)cc21 | 4.40 | 5.06 | ≤ 4.35 | 4.49 | 5.05 | ≤ 4.14 | 4 µg/mL (≈ 2.74 µM) | 4 µg/mL (≈ 2.74 µM) | 256 µg/mL (≈ 175 µM) | 16 µg/mL (≈ 11 µM) | 256 µg/mL (≈ 175 µM) | 8 µg/mL (≈ 5.48 µM) | 2 µg/mL (≈ 1.37 µM) | 2 µg/mL (≈ 1.37 µM) | 4 µg/mL (≈ 2.74 µM) | 2 µg/mL (≈ 1.37 µM) | inactive | 2 µg/mL (≈ 1.37 µM) | 2 µg/mL (≈ 1.37 µM) | 256 µg/mL (≈ 175 µM) | MIC [15]: 8 µg/mL (≈ 5.48 µM); MBC [16]: 8 µg/mL (≈ 5.48 µM); MIC [16]: 4 µg/mL (≈ 2.74 µM)
COC(=O)[C@@H]1NC(=O)[C@H]2NC(=O)[C@H](NC(=O)[C@@H]3NC(=O)[C@H]4NC(=O)[C@H](NC(=O)[C@H](n5cc(CO[C@H]6O[C@H](CO)[C@@H](O[C@H]7O[C@H](CO)[C@@H](O)[C@H](O)[C@H]7O)[C@H](O)[C@H]6O)nn5)c5ccc(O)c(c5)Oc5cc4cc(O)c5C)[C@H](O)c4ccc(cc4)Oc4cc3cc(c4O)Oc3ccc(cc3)[C@H]2O)c2ccc(O)c(c2)-c2c(O)cc(O)cc21 | 4.21 | 4.70 | < 4.00 | 4.28 | 4.80 | < 4.00 | 256 µg/mL (≈ 162 µM) | 2 µg/mL (≈ 1.27 µM) | 256 µg/mL (≈ 162 µM) | 32 µg/mL (≈ 20.2 µM) | 256 µg/mL (≈ 162 µM) | 8 µg/mL (≈ 5.06 µM) | 256 µg/mL (≈ 162 µM) | 4 µg/mL (≈ 2.53 µM) | 2 µg/mL (≈ 1.27 µM) | 1 µg/mL (≈ 0.633 µM) | Active | 8 µg/mL (≈ 5.06 µM) | 4 µg/mL (≈ 2.53 µM) | 256 µg/mL (≈ 162 µM) | MIC [15]: 4 µg/mL (≈ 2.53 µM); MBC [16]: 4 µg/mL (≈ 2.53 µM); MIC [16]: 4 µg/mL (≈ 2.53 µM)
